The text below walks through data of publication PMC12697895, “Vinburnine Sensitizes Radiotherapy Efficacy in Nasopharyngeal Carcinoma by Triggering Pyroptosis and Immune Responses via Activation of EDAR‐NFκB Pathway” (Advanced Science, 2025).

The assay has as its target T1, EDAR (endogenous, SUNE1 cells) (Homo sapiens, UniProt Q9UNE0).
T1 construct: endogenous protein in SUNE1 cells, detected by Western blot
T1 sequence (Q9UNE0 27-448): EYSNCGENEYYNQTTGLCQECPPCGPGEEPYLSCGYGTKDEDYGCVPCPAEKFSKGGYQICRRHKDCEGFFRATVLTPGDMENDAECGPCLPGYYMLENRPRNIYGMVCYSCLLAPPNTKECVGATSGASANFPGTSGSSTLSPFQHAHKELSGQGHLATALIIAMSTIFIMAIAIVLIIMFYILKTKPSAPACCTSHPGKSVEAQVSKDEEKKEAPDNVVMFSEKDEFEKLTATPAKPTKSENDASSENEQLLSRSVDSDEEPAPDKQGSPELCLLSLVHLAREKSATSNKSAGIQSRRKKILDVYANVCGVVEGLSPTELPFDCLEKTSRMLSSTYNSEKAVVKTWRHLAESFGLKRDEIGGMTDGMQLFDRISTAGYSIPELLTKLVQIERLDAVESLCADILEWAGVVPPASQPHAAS
Description: CETSA (Western blot). Type of assay: cell-based. The note with it: 10 µM vinburnine, intact SUNE1 cells, 12 h; six temperatures, 10 min. A general note: Immunoblotting shows a protein as a band on a membrane.

`CC[C@]12CCCN3CCc4c(n(c5ccccc45)C(=O)C1)[C@@H]32` [vinburnine]: the “CETSA (Western blot)” value is on record as “EDAR was more stable in vinburnine‐pretreated samples than in control samples at various temperatures”.
